Data reported in article PMC9024597, “The Biological Fate of a Novel Anticancer Drug Candidate TNBG-5602: Metabolic Profile, Interaction with CYP450, and Pharmacokinetics in Rats” (Molecules, 2022).

How the values were obtained:
[1] = In vivo metabolites in rat urine and feces by UPLC-Q-TOF-MS/MS; conditions: rats; for metabolite detected in feces: TNBG-5602 i.v. 4.8 mg kg^−1, feces 0-24 h
Protocol: An Exion LC^TM AC UPLC system (AB Sciex, Framingham, MA, USA) coupled with an […] Q-TOF tandem mass spectrometer was used for qualitative analysis in this study. Chromatographic separation was carried out on an ACQUITY UPLC HSS T3 column (2.1 × 75 mm, 1.8 μm, Waters, Wexford, Ireland). […] The column temperature was set to 35 °C. The injection volume was 5 μL. A full scan was performed over m/z 100-1000 for precursor ions in positive mode with a spray voltage of 5.5 kV, collision energy (CE) of 35 V, CE spread of 15 V, and accumulation time of 0.05 s. The Q-TOF scan for product ions was performed over m/z 100-1200 with CE 10 V and an accumulation time of 0.1 s. For the structural identification of metabolites, the UPLC-Q-TOF-MS/MS data were acquired and processed via SCIEX OS (Version 1.7, AB Sciex, Redwood City, CA, USA). The raw data files were imported into SCIEX OS 2.1 to search for and identify the metabolites of TNBG-5602. Identification of the chemical structure included two steps. The first step was automatic prediction, while the second step was manual validation. In Step 1, the candidate metabolites were predicted by the software based on the typical metabolic reactions of the templates. In Step 2, an ion chromatogram was extracted to screen candidate metabolites with mass tolerance within 5 ppm, using blank samples for the subtraction of the background. Then, the MS/MS fragment ions were extracted for the structural confirmation of candidate metabolites. […] The urine and feces samples were collected before administration (0 h) and at 8, 12, and 24 h after intravenous injection. The urine samples were vortex mixed with acetonitrile at a ratio of 1:3 (v/v) for 15 min. The mixture was then centrifuged at 15,000 rpm for 10 min, and the supernatant was dried using a gentle flow of nitrogen. The residue was dissolved in acetonitrile and vortex mixed again. The supernatant was dried again and re-dissolved in 0.1% aqueous formic acid: acetonitrile (50:50, v/v). The treated sample solutions were stored at -20 °C until analysis. A 5 μL aliquot of the thawed sample solution was injected into the UPLC-Q-TOF-MS/MS device to analyze the metabolites. The feces samples were homogenized with pure water at a ratio of 1:1 (w/w). The homogenate was vortex mixed with acetonitrile at a ratio of 1:3 (w/v) for 15 min. The mixture was then centrifuged at 15,000 rpm for 10 min, and the supernatant was dried using a gentle flow of nitrogen. The residue was dissolved with acetonitrile and vortex mixed again. The supernatant was dried again and re-dissolved in 0.1% aqueous formic acid: acetonitrile (50:50, v/v). The treated sample solutions were stored at -20 °C until analysis. A 5-μL aliquot of the thawed sample solution was injected into the UPLC-Q-TOF-MS/MS device to analyze the metabolites.

CYP2C9 = biological target: T1, CYP2C9 (Homo sapiens, UniProt P11712); assay: Metabolite formation on incubation with recombinant CYP; type: in vitro ADME; conditions: TNBG-5602 5 μg mL^−1, recombinant CYP 0.025 μM, 37 °C, 60 min
T1 construct: purchased IPHASE
Protocol: (§1) An Exion LC^TM AC UPLC system (AB Sciex, Framingham, MA, USA) coupled with an […] Q-TOF tandem mass spectrometer was used for qualitative analysis in this study. Chromatographic separation was carried out on an ACQUITY UPLC HSS T3 column (2.1 × 75 mm, 1.8 μm, Waters, Wexford, Ireland). […] The column temperature was set to 35 °C. The injection volume was 5 μL. A full scan was performed over m/z 100-1000 for precursor ions in positive mode with a spray voltage of 5.5 kV, collision energy (CE) of 35 V, CE spread of 15 V, and accumulation time of 0.05 s. The Q-TOF scan for product ions was performed over m/z 100-1200 with CE 10 V and an accumulation time of 0.1 s. For the structural identification of metabolites, the UPLC-Q-TOF-MS/MS data were acquired and processed via SCIEX OS (Version 1.7, AB Sciex, Redwood City, CA, USA). The raw data files were imported into SCIEX OS 2.1 to search for and identify the metabolites of TNBG-5602. Identification of the chemical structure included two steps. The first step was automatic prediction, while the second step was manual validation. In Step 1, the candidate metabolites were predicted by the software based on the typical metabolic reactions of the templates. In Step 2, an ion chromatogram was extracted to screen candidate metabolites with mass tolerance within 5 ppm, using blank samples for the subtraction of the background. Then, the MS/MS fragment ions were extracted for the structural confirmation of candidate metabolites. The stock solution of TNBG-5602 ([…]) was prepared using 0.1% aqueous formic acid. Then, the stock solution was diluted with PBS buffer to make the working solution of TNBG-5602 (1 mg mL^-1). The working solution of TNBG-5602 was incubated with CYP2D6, CYP3A4, CYP2C9, and CYP4V2 recombinant cytochrome enzymes, respectively. The total incubation volume for each reaction was 200 μL, containing TNBG-5602 (final concentration: 5 μg mL^-1), cytochrome P450s (final concentration: 0.025 μM), 3.3 mM MgCl2, 1.3 mM NADPH, 3.3 mM glucose-6-phosphate, 0.4 U mL^-1 glucose-6-phosphate dehydrogenase, and 0.05 mM sodium citrate. The cytochrome P450s were thawed on an ice bath and pre-incubated at 37 °C for 5 min. The mixtures were pre-incubated at 37 °C for 5 min before adding NADPH to initiate the reaction. NADPH was pre-incubated at 37 °C for 5 min and then added into the incubation system to initiate the reaction. The incubation periods were 60 min, and the reactions were quenched by adding 200 μL of iced acetonitrile. The samples were centrifuged (12,000× g rpm, 4 °C) for 10 min, and the supernatant was analyzed via the qualitative LC-MS/MS method. Blank samples in the absence of TNBG-5602 were incubated and followed by the same treatment.

CYP2D6 = biological target: T2, CYP2D6 (Homo sapiens, UniProt P10635); assay: as above; type: in vitro ADME; conditions: TNBG-5602 5 μg mL^−1, recombinant CYP 0.025 μM, 37 °C, 60 min
T2 construct: purchased IPHASE
Protocol: as §1

CYP3A4 = biological target: T3, CYP3A4 (Homo sapiens, UniProt P08684); assay: as above; type: in vitro ADME; conditions: TNBG-5602 5 μg mL^−1, recombinant CYP 0.025 μM, 37 °C, 60 min
T3 construct: purchased IPHASE
Protocol: as §1

CYP4V2 = biological target: T4, CYP4V2 (Homo sapiens, UniProt Q6ZWL3); assay: as above; type: in vitro ADME; conditions: TNBG-5602 5 μg mL^−1, recombinant CYP 0.025 μM, 37 °C, 60 min
T4 construct: purchased Abnova P01
T4 sequence (Q6ZWL3 1-525): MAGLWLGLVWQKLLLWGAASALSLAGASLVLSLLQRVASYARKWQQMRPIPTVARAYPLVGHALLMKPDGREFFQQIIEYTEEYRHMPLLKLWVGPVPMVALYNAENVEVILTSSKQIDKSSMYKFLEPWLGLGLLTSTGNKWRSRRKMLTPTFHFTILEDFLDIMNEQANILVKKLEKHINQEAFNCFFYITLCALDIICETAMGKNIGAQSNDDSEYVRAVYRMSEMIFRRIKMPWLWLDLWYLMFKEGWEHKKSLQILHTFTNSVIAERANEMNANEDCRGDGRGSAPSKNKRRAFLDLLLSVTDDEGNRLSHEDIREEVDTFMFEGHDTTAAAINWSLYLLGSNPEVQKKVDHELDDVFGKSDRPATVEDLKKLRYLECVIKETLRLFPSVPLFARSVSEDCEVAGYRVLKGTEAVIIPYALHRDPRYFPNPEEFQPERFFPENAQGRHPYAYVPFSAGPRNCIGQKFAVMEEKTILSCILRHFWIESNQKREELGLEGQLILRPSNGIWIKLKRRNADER
Protocol: as §1

T2 sequence (P10635 whole entry): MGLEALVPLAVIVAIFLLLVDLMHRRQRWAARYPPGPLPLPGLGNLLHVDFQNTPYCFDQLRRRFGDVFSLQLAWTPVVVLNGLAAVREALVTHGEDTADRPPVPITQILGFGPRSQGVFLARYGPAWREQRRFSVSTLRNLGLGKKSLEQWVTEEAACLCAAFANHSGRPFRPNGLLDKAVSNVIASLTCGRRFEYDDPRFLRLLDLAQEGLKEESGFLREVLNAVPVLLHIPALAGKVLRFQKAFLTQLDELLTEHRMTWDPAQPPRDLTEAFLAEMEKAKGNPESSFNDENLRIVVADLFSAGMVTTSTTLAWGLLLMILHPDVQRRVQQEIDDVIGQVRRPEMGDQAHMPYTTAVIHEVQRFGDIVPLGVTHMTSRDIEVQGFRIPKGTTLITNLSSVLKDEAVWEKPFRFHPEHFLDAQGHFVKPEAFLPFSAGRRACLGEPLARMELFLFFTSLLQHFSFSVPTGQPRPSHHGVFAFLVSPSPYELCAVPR
T3 sequence (P08684 whole entry): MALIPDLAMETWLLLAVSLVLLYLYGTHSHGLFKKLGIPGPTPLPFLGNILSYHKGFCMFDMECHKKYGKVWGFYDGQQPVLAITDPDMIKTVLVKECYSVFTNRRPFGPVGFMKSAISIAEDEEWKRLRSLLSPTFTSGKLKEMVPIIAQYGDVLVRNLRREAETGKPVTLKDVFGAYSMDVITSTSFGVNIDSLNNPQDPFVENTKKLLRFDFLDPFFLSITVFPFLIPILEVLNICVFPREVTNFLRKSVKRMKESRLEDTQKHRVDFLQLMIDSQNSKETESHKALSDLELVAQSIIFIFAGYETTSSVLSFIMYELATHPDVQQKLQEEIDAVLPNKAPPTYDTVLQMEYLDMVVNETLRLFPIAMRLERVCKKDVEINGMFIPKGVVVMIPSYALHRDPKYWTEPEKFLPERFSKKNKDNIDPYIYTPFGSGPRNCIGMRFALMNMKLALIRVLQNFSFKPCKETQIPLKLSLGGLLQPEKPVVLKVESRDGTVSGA
T1 sequence (P11712 whole entry): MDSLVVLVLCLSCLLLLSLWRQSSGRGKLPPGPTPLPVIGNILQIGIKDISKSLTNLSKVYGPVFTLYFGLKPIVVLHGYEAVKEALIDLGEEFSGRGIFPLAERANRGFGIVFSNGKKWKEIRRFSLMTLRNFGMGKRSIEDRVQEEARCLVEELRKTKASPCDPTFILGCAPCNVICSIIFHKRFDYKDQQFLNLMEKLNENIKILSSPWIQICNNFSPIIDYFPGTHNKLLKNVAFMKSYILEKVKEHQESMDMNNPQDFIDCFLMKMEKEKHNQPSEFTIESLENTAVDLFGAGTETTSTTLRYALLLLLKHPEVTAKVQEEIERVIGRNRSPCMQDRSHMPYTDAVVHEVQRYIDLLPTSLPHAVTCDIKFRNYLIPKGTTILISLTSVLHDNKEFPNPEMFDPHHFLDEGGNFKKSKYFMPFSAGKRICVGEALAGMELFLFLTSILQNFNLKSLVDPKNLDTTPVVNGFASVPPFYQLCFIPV

| Structure (SMILES) | rank of metabolite in the feces (major/minor) ([1]; TNBG-5602 i.v.) | rank of metabolite in the urine ([1]; TNBG-5602 i.v.) | metabolite detected in feces [1] | metabolite detected in urine ([1]; TNBG-5602 i.v. 4.8 mg kg^−1, urine 0-24 h) | metabolite detected after incubation with CYP2C9 (CYP2C9) | metabolite detected after incubation with CYP2D6 (CYP2D6) | metabolite detected after incubation with CYP3A4 (CYP3A4) | metabolite detected after incubation with CYP4V2 (CYP4V2) |
| --- | --- | --- | --- | --- | --- | --- | --- | --- |
| CNCCN1CC2c3ccccc3CCN2c2nc3ccccc3nc21 (centres unmarked) [M5] | major | main | present and × | present and × | found and × | observed and × | obtained and × | found and × |
| CN1CCN2CC3c4ccccc4CCN3C3=Nc4ccccc4NC312 (centres unmarked) [M6] | minor |  | × |  |  |  |  |  |
| c1ccc2c(c1)CCN1c3nc4ccccc4nc3N(CCN3COC3)CC21 (centres unmarked) [M7] | minor |  | × |  |  |  |  |  |
| CN(C=O)CCN1CC2c3ccccc3CCN2c2nc3ccccc3nc21 (centres unmarked) [M8] | minor |  | × |  |  |  |  |  |
